Laboratory results: publication PMC8151276, “An Integrated Approach toward NanoBRET Tracers for Analysis of GPCR Ligand Engagement” (Molecules, 2021)

Biological target: T1, GABBR2 (Homo sapiens, UniProt O75899)
T1 construct: purchased Promega (in-house HiBiT-GPCR construct library, NanoBRET)
T1 sequence (O75899 42-941): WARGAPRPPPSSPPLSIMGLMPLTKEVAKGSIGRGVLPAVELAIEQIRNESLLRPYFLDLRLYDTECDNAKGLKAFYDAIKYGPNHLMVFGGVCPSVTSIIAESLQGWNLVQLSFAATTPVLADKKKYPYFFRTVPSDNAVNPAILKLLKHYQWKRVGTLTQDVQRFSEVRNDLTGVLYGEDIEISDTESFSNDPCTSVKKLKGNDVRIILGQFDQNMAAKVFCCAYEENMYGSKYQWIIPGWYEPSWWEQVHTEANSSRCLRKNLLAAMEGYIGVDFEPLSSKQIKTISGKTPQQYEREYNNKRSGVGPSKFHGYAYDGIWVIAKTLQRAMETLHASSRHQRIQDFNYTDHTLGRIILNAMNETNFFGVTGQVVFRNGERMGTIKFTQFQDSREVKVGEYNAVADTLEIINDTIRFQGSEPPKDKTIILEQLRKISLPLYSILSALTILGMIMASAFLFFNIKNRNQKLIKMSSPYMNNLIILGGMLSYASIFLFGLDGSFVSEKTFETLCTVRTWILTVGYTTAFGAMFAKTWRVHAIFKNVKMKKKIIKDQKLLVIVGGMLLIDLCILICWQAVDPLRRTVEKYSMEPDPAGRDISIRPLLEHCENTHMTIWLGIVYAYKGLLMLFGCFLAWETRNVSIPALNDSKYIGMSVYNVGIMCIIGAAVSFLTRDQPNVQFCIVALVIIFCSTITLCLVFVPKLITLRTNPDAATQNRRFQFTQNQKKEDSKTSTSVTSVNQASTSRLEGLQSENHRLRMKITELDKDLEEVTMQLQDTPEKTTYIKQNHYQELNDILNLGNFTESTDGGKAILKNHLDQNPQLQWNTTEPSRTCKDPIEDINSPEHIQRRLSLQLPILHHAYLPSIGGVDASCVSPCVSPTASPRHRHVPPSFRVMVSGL
Test: NanoBRET screen HiBiT-GABBR2 in HEK293
Type: binding
Method: Each tracer candidate was screened across the entire library of HiBiT-GPCR constructs using NanoBRET as the detection modality. As depicted in Figure 4A, the specificity of interactions was evaluated through decrease in BRET due to competitive displacement of a bound tracer by excess parental compound. Each tracer was analyzed for binding to each HiBiT-GPCR fusion in the absence and in the presence of competing parental compound. Briefly, HEK293 cells were transfected with HiBiT-GPCR constructs diluted into promoterless DNA to reduce expression and maximize translocation to the cell surface. Each tracer candidate was then screened at concentrations of 1 μM and 0.1 μM across cells expressing these fusions. Cells were treated for 1.5 h with tracer either alone or in the presence of 20 μM competing parental compound (i.e., control). BRET was measured upon addition of purified LgBiT and subsequent complementation with HiBiT genetically fused to a GPCR. The specificity of interactions was assessed through a decrease in BRET signal due to competitive displacement of the bound tracer. To further gauge the robustness of these interactions, the fold response over the control (i.e., BRETtracer/BRETcontrol) was calculated. We chose a 1.5-fold response, which translates to ≥7-fold signal over noise as the minimal threshold required to score an interaction as positive. […]. Below we highlight the screening results obtained for our exemplary fluorescent tracers based on Clozapine, Amitriptyline and AZD1283.
HiBiT-GPCR DNA constructs were diluted in 10 mM Tris pH 8 to a final concentration of 0.01 μg/μL, arrayed in 96-well plates and stored at −20 °C. For transfection, HEK293 cells were suspended in Opti-MEM (without phenol red) supplemented with 2% fetal bovine serum (Seradigm) and 100 units/mL penicillin–streptomycin (Gibco) at a final concentration of 220,000 cells/mL and dispensed into white 96-well plates at 90 μL/well. Subsequent transfections and screens were carried using an Agilent Bravo Automated Liquid Handling Platform. First, the 96-well HiBiT DNA arrays were diluted 25-fold in Opti-MEM (without serum or phenol red) to a final concentration of 0.0004 μg/μL and 20 μL of the diluted DNAs were transferred into new 96-well plates. Next, promoterless carrier DNA (1 μg/μL) was diluted 25-fold (0.04 μg/μL) and then dispensed into the diluted arrays at 20 μL/well. Following brief mixing, Viafect transfection reagent (Promega) diluted 16-fold into Opti-MEM was dispensed into the plates at 40 μL/well. After mixing by pipetting, plates were incubated for 10 min on the pipetting station deck. The DNA-transfection reagent complexes were then added to plates containing cells. To facilitate the screen, 10 μL of DNA-transfection reagent complexes were added in duplicates to the top 4 and bottom 4 rows, resulting in two identical 48-well arrays per plate. Plates with transfected cells were incubated for 18–20 h at 37 °C/5% CO2. A screen of each tracer across the entire library using two different concentrations requires duplicate plates of transfected cells. Depending on the number of tracers being screened, transfections can be scaled up using the same ratios. The next day, for each tracer, four 20× screening solutions in tracer dilution buffer (Promega) were prepared: two duplicates at final concentration of 20 μM and two duplicates at a final concentration of 2 μM. A competing unmodified compound was added to one of each duplicate at a final concentration of 400 μM. The four resulting solutions were diluted 4-fold in Opti-MEM without serum or phenol red to generate 5× solutions (5 µM and 0.5 µM tracer +/− 100 μM competing compound). To screen the library, a BioTek MultiFlo FX liquid dispenser was used to dispense 22.5 µL of tracer solution to the top 4 rows and 22.5 µL tracer + competing compound solution to the 4 bottom rows. Plates were briefly mixed on an orbital shaker and incubated for 1.5 h at room temperature. […]

| Structure (SMILES) | NanoBRET Fold Response (GABBR2, tracer 0.1μM) | NanoBRET Fold Response (GABBR2, tracer 1μM) | further results |
| --- | --- | --- | --- |
| Cc1nc2n(c(=O)c1CCN1CCC(c3noc4cc(F)ccc34)CC1)CCCC2OC(=O)NCCOCCOCCOCCOCCNC(=O)CCc1ccc2n1[B-](F)(F)[N+]1=C(c3ccc[nH]3)C=CC1=C2 (centres unmarked) [Risperidone-2-NB590] | 1.07 | 1.17 |  |
| CCOC(=O)c1cc(C#N)c(N2CCC(C(=O)NS(=O)(=O)Cc3ccccc3/C=C/C(=O)NCCNC(=O)CCc3ccc4n3[B-](F)(F)[N+]3=C(c5ccc[nH]5)C=CC3=C4)CC2)nc1C [AZD1283-1-NB590] |  |  | NanoBRET Fold Response (GABBR2, 0.1μM): 0.89; NanoBRET Fold Response (GABBR2, 1μM): 1.01 |
| Cc1cc2c(s1)Nc1ccccc1N=C2N1CCN(CCCNC(=O)CCOCCOCCOCCOCCNC(=O)CCc2ccc3n2[B-](F)(F)[N+]2=C(c4ccc[nH]4)C=CC2=C3)CC1 [Olanzapine-a-2-NB590] | 1.01 | 0.82 |  |
| COc1ccccc1N1CCN(CCCCN2C(=O)c3ccc(CNC(=O)CCOCCNC(=O)c4ccc(CNC(=O)CCc5ccc6n5[B-](F)(F)[N+]5=C(c7ccc[nH]7)C=CC5=C6)cc4)cc3C2=O)CC1 [NAN-190-3-NB590] | 1.03 | 1.10 |  |
| CC(C)N(CC[C@H](c1ccccc1)c1cc(CCNC(=O)CCOCCOCCOCCOCCNC(=O)CCc2ccc3n2[B-](F)(F)[N+]2=C(c4ccc[nH]4)C=CC2=C3)ccc1O)C(C)C [Tolterodine-2-NB590] | 1.15 | 1.02 |  |
| CN(C)CCC=C1c2ccccc2CCc2ccc(C(=O)NCCNC(=O)CCOCCOCCOCCOCCNC(=O)CCc3ccc4n3[B-](F)(F)[N+]3=C(c5ccc[nH]5)C=CC3=C4)cc21 [Amitriptyline-b-2-NB590] |  |  | NanoBRET Fold Response (tracer at 0.1μM, listed as amitriptyline-b-2-NB590): 1.13; NanoBRET Fold Response (tracer at 1μM, listed as amitriptyline-b-2-NB590): 1.30 |
| O=C(CCOCCOCCOCCOCCNC(=O)CCc1ccc2n1[B-](F)(F)[N+]1=C(c3ccc[nH]3)C=CC1=C2)NCCCN1CCN(C2=Nc3ccccc3Oc3ccc(Cl)cc32)CC1 [Loxapine-a-2-NB590] | 1.03 | 0.85 |  |
| CN(C)CCC=C1c2ccccc2CCc2ccc(C(=O)NCCNC(=O)CCOCCOCCOCCOCCNC(=O)CCc3ccc4n3[B-](F)(F)[N+]3=C(c5ccc[nH]5)C=CC3=C4)cc21 [Amitriptyline-a-2-NB590] |  |  | NanoBRET Fold Response (tracer at 0.1μM): 1.08; NanoBRET Fold Response (tracer at 1μM): 0.95 |
| O=C(CCc1ccc2n1[B-](F)(F)[N+]1=C(c3ccc[nH]3)C=CC1=C2)NCCOCCOCCNC(=O)OCCOCCN1CCN(C2=Nc3ccccc3Sc3ccccc32)CC1 [Quetiapine-a-2-NB590] | 1.06 | 0.91 |  |
| COc1ccccc1N1CCN(CCCCN2C(=O)c3ccc(CNC(=O)CCOCCOCCOCCOCCNC(=O)CCc4ccc5n4[B-](F)(F)[N+]4=C(c6ccc[nH]6)C=CC4=C5)cc3C2=O)CC1 [NAN-190-2-NB590] | 0.95 | 1.04 |  |
| CN1CCN(C2=Nc3cc(Cl)ccc3N(CC(=O)NCCOCCOCCOCCOCCNC(=O)CCc3ccc4n3[B-](F)(F)[N+]3=C(c5ccc[nH]5)C=CC3=C4)c3ccccc32)CC1 [Clozapine-c-2-NB590] |  |  | NanoBRET Fold Response (GABBR2, 0.1μM tracer): 0.99; NanoBRET Fold Response (GABBR2, 1μM tracer): 1.02 |
| COc1ccc2[nH]c(-c3ccc(CNC(=O)CCOCCOCCOCCOCCNC(=O)CCc4ccc5n4[B-](F)(F)[N+]4=C(c6ccc[nH]6)C=CC4=C5)cc3)c(CCNC(C)=O)c2n1 [AzomelatoninICO9-2-NB590] |  |  | NanoBRET Fold Response (0.1μM tracer): 0.87; NanoBRET Fold Response (1μM tracer): 1.13 |
| O=C(CCOCCOCCOCCOCCNC(=O)CCc1ccc2n1[B-](F)(F)[N+]1=C(c3ccc[nH]3)C=CC1=C2)NCCCN1CCN(C2=Nc3cc(Cl)ccc3Nc3ccccc32)CC1 [Clozapine-a-2-NB590] |  |  | NanoBRET Fold Response (GABBR2, 0.1μM tracer): 1.07; NanoBRET Fold Response (GABBR2, 1μM tracer): 0.80 |
| CCCn1c(=O)c2[nH]c(-c3ccc(OCC(=O)NCCNC(=O)CCOCCNC(=O)c4ccc(CNC(=O)CCc5ccc6n5[B-](F)(F)[N+]5=C(c7ccc[nH]7)C=CC5=C6)cc4)cc3)nc2n(CCC)c1=O [XAC-3-NB590] | 1.02 | 1.11 |  |
| O=C(CCc1ccc2n1[B-](F)(F)[N+]1=C(c3ccc[nH]3)C=CC1=C2)NCc1ccc(C(=O)NCCOCCOCCNCC(O)COc2cccc3ccccc23)cc1 (centres unmarked) [Propranolol-3-NB590] |  |  | NanoBRET Fold Response (GABBR2, 0.1μM): 0.96; NanoBRET Fold Response (GABBR2, 1μM): 1.13 |
| O=C(CCc1ccc2n1[B-](F)(F)[N+]1=C(c3ccc[nH]3)C=CC1=C2)NCc1ccc(C(=O)NCCOCCC(=O)N[C@@H]2CC[C@@]3(O)[C@H]4Cc5ccc(O)c6c5[C@@]3(CCN4CC3CC3)[C@H]2O6)cc1 [Naltrexone-3-NB590] | 0.80 | 1.11 |  |
| CN(CCC=C1c2ccccc2CCc2ccccc21)C(=O)CCOCCOCCOCCOCCNC(=O)CCc1ccc2n1[B-](F)(F)[N+]1=C(c3ccc[nH]3)C=CC1=C2 [Amitriptyline-e-2-NB590] |  |  | NanoBRET Fold Response (tracer at 1μM): 1.08 |
| N#CN=C(NCCCOc1cccc(CN2CCCCC2)c1)NCCNC(=O)CCOCCOCCOCCOCCNC(=O)CCc1ccc2n1[B-](F)(F)[N+]1=C(c3ccc[nH]3)C=CC1=C2 [Aminopotentidine-2-NB590] | 1.03 | 0.94 |  |
| COc1ccc2c(n1)c(CCNC(C)=O)cn2CCNC(=O)CCc1ccc2n1[B-](F)(F)[N+]1=C(c3ccc[nH]3)C=CC1=C2 [Azamelatonin-1-NB590] |  |  | NanoBRET Fold Response (0.1μM tracer): 0.96; NanoBRET Fold Response (1μM tracer): 0.96 |
| CC(C)N(CC[C@H](c1ccccc1)c1cc(CCNC(=O)c2ccc(CNC(=O)CCc3ccc4n3[B-](F)(F)[N+]3=C(c5ccc[nH]5)C=CC3=C4)cc2)ccc1O)C(C)C [Tolterodine-BZ-NB590] | 0.87 | 0.71 |  |
| CN1CCN(C2=Nc3cc(Cl)ccc3Nc3ccc(CNC(=O)CCOCCOCCOCCOCCNC(=O)CCc4ccc5n4[B-](F)(F)[N+]4=C(c6ccc[nH]6)C=CC4=C5)cc32)CC1 [Clozapine-b-2-NB590] |  |  | NanoBRET Fold Response (GABBR2, 0.1μM tracer): 0.96; NanoBRET Fold Response (GABBR2, 1μM tracer): 1.07 |
